Assay results: PMC3663763, “The novel BH3 α-helix mimetic JY-1-106 induces apoptosis in a subset of cancer cells (lung cancer, colon cancer and mesothelioma) by disrupting Bcl-xL and Mcl-1 protein–protein interactions with Bak” (Molecular Cancer, 2013)

How the values were obtained:
Mcl-1 = molecular target: T1, Mcl-1 (Homo sapiens, UniProt Q07820); test: fluorescence polarization competition with FITC-Bak-BH3 peptide, […] Mcl-1 (IC50 […]); supported by co-IP in REN cells; assay type: binding
T1 construct: gene MCL1
T1 sequence (Q07820 whole entry): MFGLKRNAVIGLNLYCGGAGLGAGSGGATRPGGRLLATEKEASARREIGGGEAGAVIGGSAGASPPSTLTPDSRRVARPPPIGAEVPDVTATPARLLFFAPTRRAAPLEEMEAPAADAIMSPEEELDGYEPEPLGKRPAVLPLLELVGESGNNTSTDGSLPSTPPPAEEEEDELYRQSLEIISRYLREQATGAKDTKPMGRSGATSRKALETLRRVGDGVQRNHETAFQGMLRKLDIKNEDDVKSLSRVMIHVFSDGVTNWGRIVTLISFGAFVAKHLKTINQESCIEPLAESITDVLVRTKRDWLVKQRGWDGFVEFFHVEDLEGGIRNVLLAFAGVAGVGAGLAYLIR

Bcl-xL = molecular target: T2, Bcl-xL (Homo sapiens, UniProt Q07817); test: co-immunoprecipitation: displacement of Bak from endogenous Bcl-xL in REN cells at […]; assay type: cell-based
T2 construct: gene BCL2L1; endogenous Bcl-xL
T2 sequence (Q07817 whole entry): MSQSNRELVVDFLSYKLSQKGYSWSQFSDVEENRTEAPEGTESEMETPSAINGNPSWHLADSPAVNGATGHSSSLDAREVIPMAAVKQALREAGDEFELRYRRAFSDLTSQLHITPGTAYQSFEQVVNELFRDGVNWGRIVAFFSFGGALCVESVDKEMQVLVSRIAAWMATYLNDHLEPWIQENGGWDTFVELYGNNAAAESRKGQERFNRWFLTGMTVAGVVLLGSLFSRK
T2 sequence (Q16611 2-211 partner): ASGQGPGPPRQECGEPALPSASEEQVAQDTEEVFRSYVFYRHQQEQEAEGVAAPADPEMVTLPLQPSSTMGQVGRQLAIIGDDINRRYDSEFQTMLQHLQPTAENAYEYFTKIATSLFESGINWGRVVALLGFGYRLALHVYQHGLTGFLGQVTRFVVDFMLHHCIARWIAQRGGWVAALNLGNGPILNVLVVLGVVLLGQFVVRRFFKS

Ki (Mcl-1): 1790 ± 150 nM
Structure (SMILES): CC(C)Oc1cc(C(=O)Nc2ccc(C(=O)Nc3ccc(C(=O)O)cc3OC(C)C)nc2OC(C)C)ccc1N [JY-1-106]
co-immunoprecipitation: displacement of Bak from endogenous Bcl-xL in REN cells (Bcl-xL): JY-1-106 as well as ABT-737 can effectively displace Bak from its inhibitory binding with Bcl-xL
